Measured values published in patent publication US20250073303A1, “TDP-43 Interference Peptides, Methods, and Uses Thereof” (The University of British Columbia, priority 2022, published 2025).

Key:
[1] = target: TDP-43 (Homo sapiens, UniProt Q13148); assay: Sodium arsenite induced TDP-43 and phosphoTDP-43 accumulation and PARP cleavage in SH-SY5Y cells; assay type: cell-based; settings: 1 mM sodium arsenite for 3 hours
Description: FIG. 5. Synthetic peptides derived from CK-1δ block TDP-43 phosphorylation, aggregation and partially rescue cell death in different cellular models. […] DAPI (Blue) staining was used to determine nuclear localization. […] Representative immunoblots showing efficient siRNA knockdown of CK-1δ in SH-SY5Y cells. […] (C) Representative immunoblots showing effective blocking of TDP-43 phosphorylation and aggregation by 20 μM peptide mixture in SH-SY5Y cells, but not in HEK293 cells with ethacrynic acid (EA) treatment. (D) Dose response of peptide mixture on blocking TDP-43 aggregation in primary cultured neurons treated with 20 μM ethacrynic acid. Quantification of insoluble TDP-43 expression was shown on the right. […] The significance among the groups was calculated by one-way ANOVA, *p<0.05. The statistical significance of the difference between scramble peptides and peptide mixture groups was calculated by student's t test, #p<0.05. […] Significant differences among the groups was calculated by One-way ANOVA, *p<0.05. Significance between scramble peptides and peptide mixture group was calculated by student's t test, #p<0.05. (G) Peptide D and the peptide mixture reduces TDP-43 phosphorylation and aggregation in SH-SY5Y cells following sodium arsenite treatment. […] TDP-43, phosphoTDP-43, PARP, and actin in the soluble and insoluble fraction were analyzed by western blotting. […]

[2] = test system: mice with LPS plus sciatic nerve axotomy; assay: LPS (1 mg/kg daily) plus sciatic nerve axotomy in mice: microglia activation and motor neuron death; assay type: in vivo, mouse; settings: LPS 1 mg/kg daily i.p. plus axotomy
Description: FIG. 15: Example peptide D reduces microglia activation in lumbar spinal cord of mice with LPS plus sciatic nerve axotomy. Mice underwent LPS administration (1 mg/kg, daily, i.p.) plus sciatic nerve axotomy on day 0 and tissues were collected and fixed on day 7 post-surgery. Iba-1 staining of lumbar spinal cord of mice in each indicated group were counterstained with DAPI. 20 mg/kg of peptide D was injected daily through the i.p. route.
FIG. 16: Example peptide D prevents motor neuron death in ventral horn of spinal cord (L6) of mice with LPS plus sciatic nerve axotomy. Mice underwent LPS treatment (1 mg/kg, daily, i.p.) plus sciatic nerve axotomy on day 0 and tissue was collected and fixed on day 7 post-surgery. Markers of (A) ChAT staining (red) indicating motor neurons and (B) NeuN staining (green) counterstained with DAPI indicated alpha motor neurons in ventral horn of mice in each group. […]
Although neurodegeneration was detected in spinal cord of mice treated with a high dose of LPS (5 mg/kg, i.p.) plus sciatic nerve axotomy, motor neuron death was not observed in this model. […]
Since LPS causes systematic inflammation, microglia activation in ventral horn of spinal cord was first detected by staining with an Iba-1 antibody. […]

[3] = test system: mice with LPS plus sciatic nerve axotomy; assay: LPS (5 mg/kg) plus sciatic nerve axotomy in mice: Fluoro Jade C neurodegeneration staining; assay type: in vivo, mouse; settings: 20 mg/kg daily i.p., day 7
Description: FIG. 14: Example peptide D prevents neurodegeneration in ventral horn of spinal cord of mice with LPS plus sciatic nerve axotomy. Mice underwent LPS administration (5 mg/kg, i.p.) plus sciatic nerve axotomy on day 0 and tissues were collected and fixed on day 7 after the surgical procedure. Fluoro Jade (neurodegeneration marker) staining of ventral horn of spinal cord of mice in each indicated treatment group (upper panel) and counterstained with DAPI (lower panel). 20 mg/kg of peptide D was injected daily through i.p. route.
Neurodegeneration in the lumbar spinal cord of mice 7 days after administration of LPS plus surgery was then evaluated using Fluoro Jade C staining. Animals were divided into two peptide D treatment groups. In one group, peptide D administration started on the day of surgery, and in the other group, peptide D treatment started at 3 days post-surgery when the TDP-43 proteinopathies were at their maximum.

Chain of TDP-43 (Q13148 whole entry): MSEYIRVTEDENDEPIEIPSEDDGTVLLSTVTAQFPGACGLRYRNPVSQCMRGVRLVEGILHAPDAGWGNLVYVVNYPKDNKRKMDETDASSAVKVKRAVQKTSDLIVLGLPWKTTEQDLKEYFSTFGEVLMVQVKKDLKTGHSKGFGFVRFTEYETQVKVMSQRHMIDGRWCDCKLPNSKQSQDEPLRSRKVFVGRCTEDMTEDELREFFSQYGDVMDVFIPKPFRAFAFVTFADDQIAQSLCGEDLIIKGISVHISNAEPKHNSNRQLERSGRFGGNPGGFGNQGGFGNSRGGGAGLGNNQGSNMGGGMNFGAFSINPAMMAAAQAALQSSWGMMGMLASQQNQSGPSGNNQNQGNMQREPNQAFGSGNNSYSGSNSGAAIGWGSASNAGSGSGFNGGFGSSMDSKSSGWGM

Substance: peptide D: candidate peptide from a CK-1δ binding region for TDP-43, truncated HIV-1 TAT domain added at the N-terminal (YGRKKRRQRRRGFSYDYVFDWNMLK)
- PARP cleavage caused by sodium arsenite [1]: less PARP cleavage
- insoluble TDP-43 and phosphoTDP-43 [1]: reducing
- general microglia activation in lumbar spinal cord (Iba-1) ([2]; day 7, 20 mg/kg daily i.p.): reduced
- motor neuron death (ChAT and NeuN staining) ([2]; day 7 post-surgery): less motor neuron death
- neurodegeneration in the ventral horn of spinal cord (Fluoro Jade C) ([3]; administration started on the day of surgery): less neurodegeneration
- neurodegeneration in the ventral horn of spinal cord (Fluoro Jade C) ([3]; treatment started at 3 days post-surgery): less neurodegeneration
